One test relates to HCT116 cells. The test is described as follows: MTT assay. Type of test: cell-based. Particulars: Homo sapiens, HCT116 cells, 72 hours. How it is done:
HCT116 cells (2000/well) were plated into 96-well tissue culture plates one day before compound treatment. Compounds at various concentrations were added to the cells. The cells were incubated for 72 hours at 37° C. in 5% CO2 incubator. MTT (3-[4,5-dimethylthiazol-2-yl]-2,5 diphenyl tetrazolium bromide, Sigma) was added at a final concentration of 0.5 mg/ml and incubated with the cells for 4 hours before one volume of solubilization buffer (50% N,N-dimethylformamide, 20% SDS, pH 4.7) was added onto the cultured cells. […] OD values were converted to cell numbers according to a standard growth curve of the relevant cell line.

Test [1] deals with T1, cloned recombinant human HDAC-1 (Homo sapiens, UniProt Q13547).
T1 construct: made in house; host or cells: Baculovirus insect cell expression system
T1 sequence (Q13547 whole entry): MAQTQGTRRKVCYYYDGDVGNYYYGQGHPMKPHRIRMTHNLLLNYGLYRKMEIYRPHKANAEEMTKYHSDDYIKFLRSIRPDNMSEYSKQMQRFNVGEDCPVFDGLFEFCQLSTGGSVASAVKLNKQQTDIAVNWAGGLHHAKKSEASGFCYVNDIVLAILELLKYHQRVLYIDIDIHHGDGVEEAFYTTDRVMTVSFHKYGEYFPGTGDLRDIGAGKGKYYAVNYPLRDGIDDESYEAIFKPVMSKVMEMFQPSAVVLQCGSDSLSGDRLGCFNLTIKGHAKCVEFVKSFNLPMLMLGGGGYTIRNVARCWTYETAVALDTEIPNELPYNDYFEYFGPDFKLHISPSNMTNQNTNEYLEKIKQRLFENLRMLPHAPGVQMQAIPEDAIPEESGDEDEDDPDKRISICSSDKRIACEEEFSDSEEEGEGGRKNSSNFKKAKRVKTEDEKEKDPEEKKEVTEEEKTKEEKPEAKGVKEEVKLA
The test is described as follows: Human HDAC-1 enzyme inhibition, Assay 1 ([3H]-acetylated histone substrate, scintillation counting). Type of test: biochemical. The method, then:
Assay 1. HDAC inhibitors were screened against a cloned recombinant human HDAC-1 enzyme expressed and purified from a Baculovirus insect cell expression system. […] The mixture was extracted with ethyl acetate and the released [^3H]-acetic acid was quantified by scintillation counting. For inhibition studies, the enzyme was preincubated with compounds at 4° C. for 30 minutes prior to initiation of the enzymatic assay. IC50 values for HDAC enzyme inhibitors were determined by performing dose response curves with individual compounds and determining the concentration of inhibitor producing fifty percent of the maximal inhibition.

[2] abbreviates: Table 5F, read-out: Human HDAC-1 IC50.
Setting [3] is: Table 5b, read-out: Human HDAC-1 IC50.
Setting [4] is: Table 5d, read-out: HDAC-1 IC50.

pIC50: −log10 of the molar value. Where two headings read alike, the source gives them in different places.

On to `Nc1ccccc1NC(=O)c1ccc(N2CCOCC2)cc1` [Cpd 238], for which the pIC50 in the test with HCT116 cells (HCT-116, 72 h, Table 5F) was 5.22; in test [1] (setting [2]), 5.52.

With `N#C/N=C(\NCc1ccc(C(=O)Nc2ccccc2N)cc1)Nc1ccncc1` [Cpd 240], the pIC50 was 5.00 in the test with HCT116 cells (HCT-116, 72 h, Table 5F) and 5.74 in test [1] (setting [2]).

As to `Nc1ccccc1NC(=O)c1ccc(CN2CCOCC2)cc1` [Cpd 328], the pIC50 in the test on HCT116 cells (HCT-116, 72 h, Table 5F) was 5.00; in test [1] (setting [2]) it was 4.77.

`Nc1nc(NCc2ccc(C(=O)Nc3ccccc3N)cc2)c2nc[nH]c2n1` [Cpd 331, N-(2-Amino-phenyl)-4-[(2-amino-9H-purin-6-ylamino)-methyl]-benzamide]: the pIC50 is 5.00 in the test with HCT116 cells (HCT-116, 72 h, Table 5F) and 5.40 in test [1] (setting [2]).

With `Nc1ccccc1NC(=O)c1ccc(Cn2cnc3cc(F)c(F)cc3c2=O)cc1` [Cpd 339, N-(2-Amino-phenyl)-4-(6,7-difluoro-4-oxo-4H-quinazolin-3-ylmethyl)-benzamide], the pIC50 with HCT116 cells (HCT-116, 72 h, Table 5F) is 5.52; in test [1] (setting [2]), 5.40.

`Nc1ccccc1NC(=O)c1ccc(-c2noc(-c3ccccc3)n2)cc1` [Cpd 352, N-(2-Amino-phenyl)-4-(5-phenyl-[1,2,4]oxadiazol-3-yl)-benzamide]: the pIC50 was 5.05 in the test with HCT116 cells (HCT-116, 72 h, Table 5F) and 4.80 in test [1] (setting [2]).

In the case of `Cc1nc(-c2ccc(C(=O)Nc3ccccc3N)cc2)no1` [Cpd 353, N-(2-Amino-phenyl)-4-(5-methyl-[1,2,4]oxadiazol-3-yl)-benzamide], the pIC50 in the test on HCT116 cells (HCT-116, 72 h, Table 5F) was 5.00; in test [1] (setting [2]), 5.52.

In the case of `Nc1ccccc1NC(=O)c1ccc(-c2noc(CN3CCCCC3)n2)cc1` [Cpd 354, N-(2-Amino-phenyl)-4-(5-piperidin-1-ylmethyl-[1,2,4]oxadiazol-3-yl)-benzamide], the pIC50 in the test with HCT116 cells (HCT-116, 72 h, Table 5F) was 5.30; in test [1] (setting [2]), 4.82.

Take `Nc1ccccc1NC(=O)c1ccc(-c2noc(CN3CCOCC3)n2)cc1` [Cpd 355, N-(2-Amino-phenyl)-4-(5-morpholin-4-ylmethyl-[1,2,4]oxadiazol-3-yl)-benzamide]: the pIC50 with HCT116 cells (HCT-116, 72 h, Table 5F) was 5.00; in test [1] (setting [2]), 4.60.

For `CCCc1nc(Cc2ccc(C(=O)Nc3ccccc3N)cc2)no1` [Cpd 356], the pIC50 was 5.70 in the test on HCT116 cells (HCT-116, 72 h, Table 5F) and 5.30 in test [1] (setting [2]).

Regarding `Nc1ccccc1NC(=O)c1ccc(CN2C(=O)COc3cccnc32)cc1` [Cpd 364, N-(2-Amino-phenyl)-4-(3-oxo-2,3-dihydro-pyrido[3,2-b][1,4]oxazin-4-ylmethyl)-benzamide], the pIC50 is 6.22 with HCT116 cells (HCT-116, 72 h, Table 5F) and 5.40 in test [1] (setting [2]).

`Nc1ccccc1NC(=O)c1ccc(Oc2ccccc2)cc1` [Cpd 366, N-(2-Amino-phenyl)-4-phenoxy-benzamide]: the pIC50 in the test on HCT116 cells (HCT-116, 72 h, Table 5F) was 5.00; in test [1] (setting [2]), 4.85.

As to `Nc1ccccc1NC(=O)c1ccc(C(=O)Nc2ccccc2N)nc1` [Cpd 380, Pyridine-2,5-dicarboxylic acid bis-[(2-amino-phenyl)-amide]], the pIC50 with HCT116 cells (HCT-116, 72 h, Table 5F) was 5.10; in test [1] (setting [2]) it was 5.22.

With `Nc1ccccc1NC(=O)c1ccc(CNc2nccc3ccccc23)cc1` [Cpd 399, N-(2-Amino-phenyl)-4-(isoquinolin-1-ylaminomethyl)-benzamide], the pIC50 is 5.05 in the test with HCT116 cells (HCT-116, 72 h, Table 5F) and 4.85 in test [1] (setting [2]).

For `COc1cc(NCc2ccc(C(=O)Nc3ccccc3N)cc2)c(C(=O)O)cc1OC` [Cpd 406, 2-[4-(2-Amino-phenylcarbamoyl)-benzylamino]-4,5-dimethoxy-benzoic acid], the pIC50 is 4.96 in the test on HCT116 cells (HCT-116, 72 h, Table 5F) and 5.52 in test [1] (setting [2]).

For `Cc1cc(C)cc(NCc2ccc(C(=O)Nc3ccccc3N)cc2)c1` [Cpd 407, N-(2-Amino-phenyl)-4-[(3,5-dimethyl-phenylamino)-methyl]-benzamide], the pIC50 with HCT116 cells (HCT-116, 72 h, Table 5F) is 5.70; in test [1] (setting [2]), 5.52.

As for `Nc1ccccc1NC(=O)c1ccc(CNc2ccc(OCc3cccnc3)cc2)cc1` [Cpd 408, N-(2-Amino-phenyl)-4-{[4-(pyridin-3-ylmethoxy)-phenylamino]-methyl}-benzamide], the pIC50 with HCT116 cells (HCT-116, 72 h, Table 5F) is 5.70; in test [1] (setting [2]) it was 5.40.

Turning to `Cc1ccc(NCc2ccc(C(=O)Nc3ccccc3N)cc2)c(C)c1` [Cpd 409, N-(2-Amino-phenyl)-4-[(2,4-dimethyl-phenylamino)-methyl]-benzamide], the pIC50 with HCT116 cells (HCT-116, 72 h, Table 5F) was 6.00; in test [1] (setting [2]), 5.52.

As to `Nc1ccccc1NC(=O)c1ccc(NC(=O)C(F)(F)F)cc1` [Cpd 431, N-(2-Aminophenyl)-4-(2,2,2-trifluoro-acetylamino)-benzamide], the pIC50 with HCT116 cells (HCT-116, 72 h, Table 5F) is 5.30; in test [1] (setting [2]), 5.30.

Turning to `COc1cc(NCc2ccc(C(=O)Nc3ccccc3N)cn2)cc(OC)c1OC` [Cpd 445, N-(2-Amino-phenyl)-6-[(3,4,5-trimethoxy-phenylamino)-methyl]-nicotinamide], the pIC50 in the test on HCT116 cells (HCT-116, 72 h, Table 5F) is 5.22; in test [1] (setting [2]) it was 4.80.

As to `Nc1ccccc1NC(=O)c1ccc(NCCn2cnc3ccccc3c2=O)nc1` [Cpd 446, N-(2-Amino-phenyl)-6-[2-(4-oxo-4H-quinazolin-3-yl)-ethylamino]-nicotinamide], the pIC50 in the test with HCT116 cells (HCT-116, 72 h, Table 5F) was 5.15; in test [1] (setting [2]), 4.68.

Consider `Nc1ccccc1NC(=O)c1ccc(CNc2ccc3[nH]c(=O)[nH]c3c2)cc1` [Cpd 449, N-(2-Amino-phenyl)-4-[(2-oxo-2,3-dihydro-1H-benzoimidazol-5-ylamino)-methyl]-benzamide], for which the pIC50 was 5.22 with HCT116 cells (HCT-116, 72 h, Table 5F) and 6.00 in test [1] (setting [2]).

In the case of `Nc1ccccc1NC(=O)c1ccc(CNc2ccc(SC(F)(F)F)cc2)cc1` [Cpd 450, N-(2-Amino-phenyl)-4-[(4-trifluoromethylsulfanyl-phenylamino)-methyl]-benzamide], the negative logarithm of the IC50 (pIC50) was 5.70 in the test with HCT116 cells (HCT-116, 72 h, Table 5F) and 5.52 in test [1] (setting [2]).

As to `CNc1nc2cc(NCc3ccc(C(=O)Nc4ccccc4N)cc3)ccc2s1` [Cpd 456, N-(2-Amino-phenyl)-4-[(2-methylamino-benzothiazol-5-ylamino)-methyl]-benzamide], the pIC50 with HCT116 cells (HCT-116, 72 h, Table 5F) is 6.40; in test [1] (setting [2]), 5.52.

For `Nc1ccccc1NC(=O)c1ccc(C#CC2(O)CCCCC2)nc1` [Cpd 463, N-(2-Amino-phenyl)-6-(1-hydroxy-cyclohexylethynyl)-nicotinamide], the pIC50 in the test on HCT116 cells (HCT-116, 72 h, Table 5F) is 5.22; in test [1] (setting [2]) it was 4.92.

In the case of `Cc1ccc(Sc2ccc(C(=O)Nc3ccccc3N)cn2)cc1` [Cpd 464, N-(2-Amino-phenyl)-6-p-tolylsulfanyl-nicotinamide], the pIC50 is 4.96 in the test on HCT116 cells (HCT-116, 72 h, Table 5F) and 5.40 in test [1] (setting [2]).

As for `CCCCNc1nc(NCCc2ccccc2)nc(NCc2ccc(C(=O)Nc3ccccc3N)cc2)n1` [Cpd 473], the pIC50 with HCT116 cells (HCT-116, 72 h, Table 5b) is 5.52; in test [1] (setting [3]), 5.40.

As for `Nc1ccccc1NC(=O)c1ccc(CNc2nc(NCCc3ccc(Cl)cc3)nc(NC3CC3)n2)cc1` [Cpd 475], the pIC50 with HCT116 cells (HCT-116, 72 h, Table 5b) was 5.70; in test [1] (setting [3]), 6.22.

Consider `Nc1ccccc1NC(=O)c1ccc(CNc2nc(NCCc3cccc(Cl)c3)nc(NC3CC3)n2)cc1` [Cpd 477], for which the pIC50 in the test with HCT116 cells (HCT-116, 72 h, Table 5b) is 6.15; in test [1] (setting [3]), 6.00.

Regarding `COc1ccc(CCNc2nc(NCc3ccc(C(=O)Nc4ccccc4N)cc3)nc(NC3CC3)n2)cc1OC` [Cpd 478], the pIC50 was 6.15 with HCT116 cells (HCT-116, 72 h, Table 5b) and 5.52 in test [1] (setting [3]).

As for `COc1cccc(CCNc2nc(NCc3ccc(C(=O)Nc4ccccc4N)cc3)nc(NC3CC3)n2)c1` [Cpd 479], the pIC50 in the test with HCT116 cells (HCT-116, 72 h, Table 5b) is 6.22; in test [1] (setting [3]) it was 6.40.

As for `Nc1ccccc1NC(=O)c1ccc(CNc2nc(NCCc3ccccn3)nc(NC3CC3)n2)cc1` [Cpd 480], the pIC50 in the test on HCT116 cells (HCT-116, 72 h, Table 5b) was 6.30; in test [1] (setting [3]), 6.10.

With `COc1cc(Nc2ccc(/C=C/C(=O)Nc3ccccc3N)cc2)cc(OC)c1OC` [Cpd 481], the pIC50 in the test on HCT116 cells (HCT-116, Table 5d) is 5.00; in test [1] (setting [4]), 4.66.

As for `Nc1ccccc1NC(=O)c1ccc(CNc2nc(NCCc3cccnc3)nc(NC3CC3)n2)cc1` [Cpd 481], the pIC50 with HCT116 cells (HCT-116, 72 h, Table 5b) is 6.15; in test [1] (setting [3]), 5.22.

Take `Nc1ccccc1NC(=O)c1ccc(CNc2nc(NC3CC3)nc(OCCc3ccccc3)n2)cc1` [Cpd 482]: the pIC50 was 6.15 with HCT116 cells (HCT-116, 72 h, Table 5b) and 7.00 in test [1] (setting [3]).

Turning to `COc1cc(/C=C/C(=O)Nc2ccccc2N)ccc1CNc1cc(OC)c(OC)c(OC)c1` [Cpd 484], the pIC50 with HCT116 cells (HCT-116, Table 5d) was 4.92; in test [1] (setting [4]) it was 4.70.

On to `Nc1nc(NCc2ccc(C(=O)Nc3ccccc3N)cc2)nc(-c2ccccc2)n1` [Cpd 484], for which the pIC50 was 6.52 with HCT116 cells (HCT-116, 72 h, Table 5b) and 5.70 in test [1] (setting [3]).

Take `Nc1ccccc1NC(=O)c1ccc(CNc2nc(NC3Cc4ccccc4C3)nc(-c3ccccc3)n2)cc1` [Cpd 485, N-(2-amino-phenyl)-4-{[6-(2-indanyl-amino)-4-phenyl-[1,3,5]-triazin-2-yl-amino]-methyl}-benzamide]: the pIC50 in the test on HCT116 cells (HCT-116, 72 h, Table 5b) was 5.52; in test [1] (setting [3]), 6.40.

As for `COc1cc(Cl)nc(NCc2ccc(/C=C/C(=O)Nc3ccccc3N)cc2)n1` [Cpd 493, N-(2-Amino-phenyl)-3-{4-[(4-chloro-6-methoxy-pyrimidin-2-ylamino)-methyl]-phenyl]-acrylamide], the pIC50 in the test with HCT116 cells (HCT-116, Table 5d) was 5.30; in test [1] (setting [4]), 5.40.

For the molecule `COc1cc(NCc2ccc(/C=C/C(=O)Nc3ccccc3N)cc2)cc(OC)c1` [Cpd 494], the pIC50 in the test on HCT116 cells (HCT-116, Table 5d) was 5.40; in test [1] (setting [4]), 5.52.

The values above are taken from patent US7868204B2, “Inhibitors of histone deacetylase” (MethylGene Inc., priority 2001, dated 2011).
